Patent publication US20240374535A1, “COMPOSITIONS AND METHODS FOR TREATING BIOFILM DISORDERS AND INFECTIONS” (AHV International B.V., priority 2021, published 2024)

What was measured:
[1] = system: Pseudomonas aeruginosa ATCC 27853; test: MIC assay (planktonic growth inhibition, OD600); type: cell-based, P. aeruginosa; settings: 24 h at 37° C.
Summary of the method: (§1)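 Broth microdilution in MHB-II, two-fold series from 8 mM stock solution (Tween 80/DMSO co-diluted, 2.5% in top well). Inoculum from overnight TSA colonies adjusted to OD600 0.0008 (~10^6 CFU/mL); 24 h at 37° C., growth read as OD600; three independent experiments.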

[2] = system: Staphylococcus epidermis ATCC 35984 biofilm; test: MBEC assay (biofilm eradication, CFU log reduction); type: cell-based, S. epidermidis; settings: 48 h grown biofilm, 20 h treatment, CFU log reduction vs untreated
Summary of the method: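 Biofilms were grown 48 h static at 37 °C in TSB from inocula at OD600 0.2, then treated 20 h at 37 °C with 1, 0.5, 0.25 or 0.125 mM compound in saline (Tween 80 and DMSO each 0.63–0.08%), four replicates per condition. Resuspended biofilm was serially diluted and plated on TSA for 24 h; log CFU reduction versus untreated, with ≥1 counted as significant, in two independent experiments.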

[3] = system: cows with a SCC of more as 250.000 cells/ml; test: In vivo mastitis test: somatic cell count (SCC) in milk after a single oral tablet; set-up: species or system cow; settings: single oral tablet (10 g), 60 days, FIG. 1
Procedure: Experiments were performed to examine the effect of compounds on the cell count or somatic cell count (SCC) in milk.
Somatic cell counts (SCC) is related to the amount of pathogens that are in the quarter visible for the immune system. The cell count of each cow was measured with the milk production registration (MPR). This MPR is done periodically every 30-40 days at all farms. The Somatic Cell Count (SCC) is a main indicator of milk quality. The majority of somatic cells are leukocytes (white blood cells)—which become present in increasing numbers in milk usually as an immune response to a mastitis-causing pathogen—and a small number of epithelial cells, which are milk-producing cells shed from inside of the udder when an infection occurs.
The SCC data was extracted from milk production registrations (MPRs). MPRs are databases showing all details (e.g. SCC) of the produced milk per individual cow. MPRs of the selected farms were available periodically. SCC is quantified as the number of cells per ml of milk. In general terms: an individual cow with a value for SCC of 100,000 or less indicates an ‘uninfected’ cow and there were no significant production losses due to subclinical mastitis. A threshold SCC above 250,000 indicates infection and counts between 100,000 to 250,000 indicate a high risk of infection.
The experiments were performed on a farm with 90 cows. Examination was performed on cell count with the above described tablets during 60 days.
Cows with a SCC of more as 250.000 cells/ml before treatment were selected for administration of a single tablet.

[4] = system: Staphylococcus epidermis ATCC 35984; test: MIC assay (planktonic growth inhibition, OD600); type: cell-based, S. epidermidis; settings: 24 h at 37° C.
Summary of the method: as §1

[5] = minimal concentration reducing final OD600 by 50%
[6] = minimal concentration reducing final OD600 by 90%

Row | SMILES | P. aeruginosa MIC50 [1, 5] [µM] | P. aeruginosa MIC90 [1, 6] [µM] | S. epidermidis MBEC mM with log reduction ≥1 [2] [mM] | somatic cell count (SCC) of milk [3] | S. epidermidis MIC50 [4, 5] [µM] | S. epidermidis MIC90 [4, 6] [µM] | IC50 ([1]; Pseudomonas aeruginosa, ATCC27853, minimal concentration reducing final OD600 by 50%, read-out: P. aeruginosa MIC50) [µM] | IC90 ([1]; Pseudomonas aeruginosa, ATCC27853, minimal concentration reducing final OD600 by 90%, read-out: P. aeruginosa MIC90) [µM] | minimal effective concentration ([2]; read-out: S. epidermidis MBEC mM with log reduction ≥1) [mM] | IC50 ([4]; minimal concentration reducing final OD600 by 50%, read-out: S. epidermidis MIC50) [µM] | IC90 ([4]; minimal concentration reducing final OD600 by 90%, read-out: S. epidermidis MIC90) [µM]
1 | CSS(C)(=O)=O [Di-methyl thiosulfonate, methyl methane thiosulfonate] | 250 | 500 | 2 | significantly decreased | 250 | 250 |  |  |  |  | 
2 | CCCS[S+]([O-])CCC (stereo not drawn) [Di-n-propyl thiosulfinate, S-propyl propane-1-sulfinothioate] |  |  |  | significantly decreased |  |  | 1000 | 2000 | 2 | 250 | 500
